In brackets after ≈: the same amount, converted by molar mass.

Data set [1] is described as follows: physchem. Conditions: octan-1-ol/water.
Data set [2] in a line: physchem. Conditions: pH 7.4 buffer.

Compound `CC(C)C[C@H](N[C@@H](c1ccc(-c2ccc(S(C)(=O)=O)cc2)cc1)C(F)(F)F)C(=O)NCC#N` gave a logD in data set [1] (pH 7.4, LogD7.4) of 3.24. Moreover, the thermodynamic solubility in data set [2] turned out to be 4 µM (≈ 1.93 µg/mL).
Regarding `CS(=O)(=O)c1cccc(Nc2nccc(Nc3cccc4ccoc34)n2)c1`, the logD in data set [1] (pH 7.4, LogD7.4) came out at 3.52. The compound also showed a solubility (thermodynamic) in data set [2] of 5.4 µM (≈ 2.05 µg/mL).
The corresponding values for `c1nc(N2CCCCC2)c2nc[nH]c2n1` are 1.84 and 501 µM (≈ 102 µg/mL).
Regarding `Cc1cn(C[C@H]2CN(c3ccc(C4=CCS(=O)(=O)CC4)c(F)c3)C(=O)O2)nn1`, the log distribution coefficient (logD) in data set [1] (pH 7.4, LogD7.4) is 1.25. Moreover, the thermodynamic solubility in data set [2] is 372 µM (≈ 151 µg/mL).
Compound `COc1ccc(NC(=O)c2nnc(Nc3ccccc3F)o2)cn1` returned a logD in data set [1] (pH 7.4, LogD7.4) of 3.2. This compound returned a solubility (thermodynamic) in data set [2] of 3.3 µM (≈ 1.09 µg/mL).
In the same order, the values of `O=C(c1ccc(F)cc1)C1CCN(C(=S)Nc2ccc(F)cc2)CC1` are 3.4 and 2.5 µM (≈ 0.901 µg/mL).
`Clc1ccc(-c2nnc3cccc(Cl)n23)c(Cl)c1` yielded a logD in data set [1] (pH 7.4, LogD7.4) of 2.88. The same compound gave a solubility (thermodynamic) in data set [2] of 52.5 µM (≈ 15.7 µg/mL).
In the same order, the values of `CN(C)c1cccc2c(S(N)(=O)=O)cccc12` are 1.95 and 23.4 µM (≈ 5.86 µg/mL).
In the same order, the values of `COC(=O)COc1ccc(C(=O)Nc2ccc(F)cc2)cn1` are 2.43 and 55 µM (≈ 16.7 µg/mL).
In data set [1] (pH 7.4, LogD7.4), `CS(=O)(=O)C1(c2cc(N3CCOCC3)nc(-c3ccccc3)n2)CC1` showed a logD of 2.6. Also, in data set [2], the solubility (thermodynamic) came out at 8.9 µM (≈ 3.2 µg/mL).
In the case of `O=c1[nH][nH]c(=O)c2c1[nH]c1cc(Cl)cc(Cl)c12`, in data set [1] (pH 7.4, LogD7.4), the log distribution coefficient (logD) turned out to be 1.02. This compound also showed a thermodynamic solubility in data set [2] of 57.5 µM (≈ 15.5 µg/mL).
In the same order, the values of `CN(C)CC(O)COc1ccc(Nc2nccc(N(CC#N)c3cc(Cl)ccc3Cl)n2)cc1` (stereo unspecified) are 2.4 and 575 µM (≈ 280 µg/mL).
In the same order, the values of `CCCOc1nc(N2CCC[C@@H](CC(=O)O)C2)ccc1C(=O)NC1CCCCC1` are 2.81 and 550 µM (≈ 222 µg/mL).
On to `Nc1nccc(/C=C/c2ccc(Cl)cc2)n1`, for which, in data set [1] (pH 7.4), the logD amounted to 3.5. The thermodynamic solubility in data set [2] was 8.7 µM (≈ 2.02 µg/mL).
In turn, `Cc1nc(C)c(-c2ccc([C@H]3CC[C@@H](CC(=O)O)CC3)c(F)c2)nc1C(N)=O` came in with a logD in data set [1] (pH 7.4, LogD7.4) of 1.2. In data set [2], this compound came in with a solubility (thermodynamic) of 759 µM (≈ 292 µg/mL).
In data set [1] (pH 7.4, LogD7.4), `COc1cc2c(Nc3ccc(Cl)cc3F)ncnc2cc1OCCCN1CCOCC1` displayed a logD of 3.4. The thermodynamic solubility in data set [2] turned out to be 21.9 µM (≈ 9.79 µg/mL).
In the same order, the values of `Oc1cc(OCc2ccccc2)ccn1` are 1.69 and 1230 µM (≈ 248 µg/mL).
Compound `CNC(=O)c1ccc(N2C(=S)N(c3ccc(C#N)c(C(F)(F)F)c3)C(=O)C23CCC3)cc1F` came in with a logD in data set [1] (pH 7.4) of 3.3. The compound further displayed a thermodynamic solubility in data set [2] of 1.6 µM (≈ 0.762 µg/mL).
In turn, `O=c1oc(-c2ccccc2)cc2ccccc12` came in with a logD in data set [1] (pH 7.4, LogD7.4) of 3.84. This compound also had a thermodynamic solubility in data set [2] of 11.5 µM (≈ 2.56 µg/mL).
With `Cn1c(C#N)ccc1-c1ccc2c(c1)C(C)(C)OC(=O)N2`, in data set [1] (pH 7.4, LogD7.4), the logD amounted to 2.85. In addition, the solubility (thermodynamic) in data set [2] is 13.2 µM (≈ 3.71 µg/mL).
In the same order, the values of `O=C(Nc1ccc(N2CCOCC2)nc1)c1nnc(Nc2cccc(OCc3ccccn3)c2)o1` are 3.1 and 6.3 µM (≈ 2.98 µg/mL).
The compound `N#Cc1cnn(-c2ccccc2)c1NC(=O)CN1CCOCC1` had a logD in data set [1] (pH 7.4, LogD7.4) of 0.5. The same compound registered a thermodynamic solubility in data set [2] of 1020 µM (≈ 319 µg/mL).
The compound `O=C(Nc1ccc(Oc2cccnc2)nc1)c1nnc(Nc2ccccc2F)o1` showed a logD in data set [1] (pH 7.4, LogD7.4) of 3.1. Also, the thermodynamic solubility in data set [2] was 77.6 µM (≈ 30.4 µg/mL).
`c1cc(Nc2ccnc(Nc3cc(N4CCOCC4)cc(N4CCOCC4)c3)n2)c2cn[nH]c2c1` returned a logD in data set [1] (pH 7.4, LogD7.4) of 3.05. Also, in data set [2], the solubility (thermodynamic) amounted to 2.5 µM (≈ 1.18 µg/mL).
As for `O=S(=O)(c1cccc(-c2cn3cccnc3n2)c1)N1CCOCC1`, the logD in data set [1] (pH 7.4, LogD7.4) is 1.3. In addition, in data set [2], the thermodynamic solubility worked out at 39.8 µM (≈ 13.7 µg/mL).
The corresponding values for `O=S(=O)(Cc1c(F)cccc1F)N1CCN(c2ncccc2C(F)(F)F)CC1` are 3.9 and 2 µM (≈ 0.843 µg/mL).
The corresponding values for `Cc1ccc(C(=O)Oc2ccc(C(O)CNC(C)(C)C)cc2OC(=O)c2ccc(C)cc2)cc1` (stereo unspecified) [BITOLTEROL] are 3.57 and 81.3 µM (≈ 37.5 µg/mL).
The corresponding values for `C[C@@H](Oc1cccc2ncnc(Nc3ccc(OCc4ccccn4)c(Cl)c3)c12)C(=O)N(C)C` are 3.67 and 6.2 µM (≈ 2.96 µg/mL).
For the compound `CNc1cccc(CCCc2ccc(C[C@H](NC(=O)c3c(Cl)cccc3Cl)C(=O)O)s2)n1`, the logD in data set [1] (pH 7.4, LogD7.4) is 0.78. Further, in data set [2], the solubility (thermodynamic) is 331 µM (≈ 163 µg/mL).
The corresponding values for `COc1cc2ncc(C(N)=O)c(Nc3ccccc3F)c2cc1OC` are 2.81 and 21.9 µM (≈ 7.48 µg/mL).
In the same order, the values of `COc1cc2ncnc(Nc3cccc(Cl)c3F)c2cc1CN1C[C@H](OC)C[C@@H]1C(N)=O` are 3.09 and 436 µM (≈ 201 µg/mL).
In turn, `Cc1ccn2c(NC(=O)c3ccccc3)c(-c3cccs3)nc2c1` registered a logD in data set [1] (pH 7.4) of 2.87. In data set [2], this compound displayed a solubility (thermodynamic) of 1.1 µM (≈ 0.367 µg/mL).
Turning to `CC[C@@H]1COCCN1c1cc(C2(S(C)(=O)=O)CC2)nc(-c2cccc3[nH]ccc23)n1`, in data set [1] (pH 7.4, LogD7.4), the logD stood at 3. Besides, the solubility (thermodynamic) in data set [2] worked out at 79.4 µM (≈ 33.9 µg/mL).

As a reminder, the logD is lipophilicity at a set pH, counting ionised and neutral species. A high value points to higher lipophilicity. Broadly, the solubility (thermodynamic) is the concentration in solution at equilibrium with solid.

The record behind these values is ChEMBL document CHEMBL3301361, “Experimental in vitro DMPK and physicochemical data on a set of publicly disclosed compounds”.
